Assay results: patent publication US4542025A, “Injectable, long-acting microparticle formulation for the delivery of anti-inflammatory agents” (priority 1984, dated 1985)

Assay: In vitro release of methylprednisolone acetate into 50 wt % aqueous ethanol
Format: physicochemical
Conditions: unencapsulated, 37° C., 120 cycles/min
Protocol: The in vitro release of methylprednisolone acetate from microparticles into a receiving fluid comprising 50 wt % of aqueous ethanol maintained at 37° C. was measured.
Triplicate samples of 20 mg of microparticles were weighed and each sample was placed in an 8-oz bottle containing 150 mL of 50 wt % aqueous ethanol. […] Next, the bottles were sealed with a thin sheet of Teflon and a screw cap to prevent evaporation. The bottles were then placed in an Eberbach shaker bath oscillating at 120 cycles/min and maintained at 37° C. The amount of drug released from the microparticles as a function of time was measured by determining the absorbance of the aqueous ethanol receiving fluid at 247 nm and by using the following equation based on Beer's Law.
wherein C is the concentration of methylprednisolone acetate in g/ml.

time to complete dissolution: 30 min
Structure (SMILES): CC(=O)OCC(=O)[C@@]1(O)CC[C@H]2[C@@H]3C[C@H](C)C4=CC(=O)C=C[C@]4(C)[C@H]3[C@@H](O)C[C@@]21C
